Assay results reported in patent US12071441B2, “10-(di(phenyl)methyl)-4-hydroxy-8,9,9A,10-tetrahydro-7H-pyrrolo[1′,2′:4,5]pyrazino[1,2-b]pyridazine-3,5-dione derivatives and related compounds as inhibitors of the orthomyxovirus replication for treating influenza” (Novartis AG, priority 2018, dated 2024).

Key:
Experiment in all cases: microbe, parasite or virus in culture
Assay type in all cases: cell-based
[1] = tested on: influenza A virus minigenome (PB2, PB1, PA, NP; luciferase reporter) in 293T cells, RNP_CAL; conditions: HEK-293T, 48 h, read-out: RNP_CAL_EC50
[2] = tested on: influenza A virus minigenome (PB2, PB1, PA, NP; luciferase reporter) in 293T cells, RNP_Alaska; conditions: HEK-293T, 48 h
[3] = tested on: influenza A virus minigenome (PB2, PB1, PA, NP; luciferase reporter) in 293T cells, RNP_Hubei; conditions: HEK-293T, 48 h

Compound	EC50 [1] [nM]	EC50 [2] [nM]	EC50 [3] [nM]
CC(C)(C)C(=O)OCOc1c2n(ncc1=O)[C@@H]([C@H](c1ccccc1)c1cccc(F)c1F)[C@H]1CCCN1C2=O [Example 63, (((9aR,10S)-10-((R)-(2,3-difluorophenyl)(phenyl)methyl)-3,5-dioxo-3,5,8,9,9a,10-hexahydro-7H-pyrrolo[1′,2′:4,5]pyrazino[1,2-b]pyridazin-4-yl)oxy)methyl pivalate]	< 100	< 100	< 100
COC(=O)OCOc1c2n(ncc1=O)[C@@H]([C@H](c1ccccc1)c1cccc(F)c1F)[C@H]1CCCN1C2=O [Example 30, (((9aR,10S)-10-((R)-(2,3-difluorophenyl)(phenyl)methyl)-3,5-dioxo-3,5,8,9,9a,10-hexahydro-7H-pyrrolo[1′,2′:4,5]pyrazino[1,2-b]pyridazin-4-yl)oxy)methyl methyl carbonate]	< 100	< 100	< 100
COC(C)(C)CC(=O)Oc1c2n(ncc1=O)[C@@H]([C@H](c1ccccc1)c1cccc(F)c1F)[C@H]1CCCN1C2=O [Example 39, (9aR,10S)-10-((R)-(2,3-difluorophenyl)(phenyl)methyl)-3,5-dioxo-3,5,8,9,9a,10-hexahydro-7H-pyrrolo[1′,2′:4,5]pyrazino[1,2-b]pyridazin-4-yl 3-methoxy-3-methylbutanoate]	< 100	< 100	< 100
CC(=O)Oc1c2n(ncc1=O)[C@@H]([C@H](c1ccccc1)c1cccc(F)c1F)[C@H]1CCCN1C2=O [Example 58, (9aR,10S)-10-((R)-(2,3-difluorophenyl)(phenyl)methyl)-3,5-dioxo-3,5,8,9,9a,10-hexahydro-7H-pyrrolo[1′,2′:4,5]pyrazino[1,2-b]pyridazin-4-yl acetate]	< 100	< 100	< 100
O=C(Oc1c2n(ncc1=O)[C@@H]([C@H](c1ccccc1)c1cccc(F)c1F)[C@H]1CCCN1C2=O)N1CCCCC1 [Example 48, (9aR,10S)-10-((R)-(2,3-difluorophenyl)(phenyl)methyl)-3,5-dioxo-3,5,8,9,9a,10-hexahydro-7H-pyrrolo[1′,2′:4,5]pyrazino[1,2-b]pyridazin-4-yl piperidine-1-carboxylate]	< 100	< 100	< 100
CC(C)(C)OC(=O)OCOc1c2n(ncc1=O)[C@@H]([C@H](c1ccccc1)c1cccc(F)c1F)[C@H]1CCCN1C2=O [Example 55, tert-butyl ((((9aR,10S)-10-((R)-(2,3-difluorophenyl)(phenyl)methyl)-3,5-dioxo-3,5,8,9,9a,10-hexahydro-7H-pyrrolo[1′,2′:4,5]pyrazino[1,2-b]pyridazin-4-yl)oxy)methyl) carbonate]	100 to 1000	100 to 1000	< 100
O=C(CC1CCOCC1)Oc1c2n(ncc1=O)[C@@H]([C@H](c1ccccc1)c1cccc(F)c1F)[C@H]1CCCN1C2=O [Example 73, (9aR,10S)-10-((R)-(2,3-difluorophenyl)(phenyl)methyl)-3,5-dioxo-3,5,8,9,9a,10-hexahydro-7H-pyrrolo[1′,2′:4,5]pyrazino[1,2-b]pyridazin-4-yl 2-(tetrahydro-2H-pyran-4-yl)acetate]	< 100	< 100	< 100
COc1cccc([C@@H](c2cccc(F)c2F)[C@H]2[C@H]3CCCN3C(=O)c3c(O)c(=O)cnn32)c1 [Example 29, (9aR,10S)-10-((S)-(2,3-difluorophenyl)(3-methoxyphenyl)methyl)-4-hydroxy-8,9,9a,10-tetrahydro-7H-pyrrolo[1′,2′:4,5]pyrazino[1,2-b]pyridazine-3,5-dione]	100 to 1000	100 to 1000	100 to 1000
O=C1c2c(O)c(=O)cnn2[C@@H]([C@H](c2ccc(F)cc2)c2ccc(C(F)(F)F)cc2)[C@H]2CCCN12 [Example 21, (9aR,10S)-10-((S)-(4-fluorophenyl)(4-(trifluoromethyl)phenyl)methyl)-4-hydroxy-8,9,9a,10-tetrahydro-7H-pyrrolo[1′,2′:4,5]pyrazino[1,2-b]pyridazine-3,5-dione]	100 to 1000	100 to 1000	100 to 1000
CC(C)C(=O)OCOc1c2n(ncc1=O)[C@@H]([C@H](c1ccccc1)c1cccc(F)c1F)[C@H]1CCCN1C2=O [Example 32, (((9aR,10S)-10-((R)-(2,3-difluorophenyl)(phenyl)methyl)-3,5-dioxo-3,5,8,9,9a,10-hexahydro-7H-pyrrolo[1′,2′:4,5]pyrazino[1,2-b]pyridazin-4-yl)oxy)methyl isobutyrate]	< 100	< 100	< 100
CC(=O)Oc1c2n(ncc1=O)[C@@H]([C@H](c1ccc(F)cc1)c1cccc(F)c1F)[C@H]1CCCN1C2=O [Example 83, (9aR,10S)-10-((R)-(2,3-difluorophenyl)(4-fluorophenyl)methyl)-3,5-dioxo-3,5,8,9,9a,10-hexahydro-7H-pyrrolo[1′,2′:4,5]pyrazino[1,2-b]pyridazin-4-yl acetate]	< 100	< 100	< 100
COC(=O)C(C)(C)OC(=O)OCOc1c2n(ncc1=O)[C@@H]([C@H](c1cccc(F)c1)c1cccc(F)c1F)[C@H]1CCCN1C2=O [Example 104, methyl 2-((((((9aR,10S)-10-((R)-(2,3-difluorophenyl)(3-fluorophenyl)methyl)-3,5-dioxo-3,5,8,9,9a,10-hexahydro-7H-pyrrolo[1′,2′:4,5]pyrazino[1,2-b]pyridazin-4-yl)oxy)methoxy)carbonyl)oxy)-2-methylpropanoate]	100 to 1000	100 to 1000	100 to 1000
O=C1c2c(O)c(=O)cnn2[C@@H]([C@@H](c2ccc(F)cc2)c2ccc(C(F)(F)F)cc2)[C@H]2CCCN12 [Example 2, (9aR,10S)-10-((R)-(4-fluorophenyl)(4-(trifluoromethyl)phenyl)methyl)-4-hydroxy-8,9,9a,10-tetrahydro-7H-pyrrolo[1′,2′:4,5]pyrazino[1,2-b]pyridazine-3,5-dione]	100 to 1000	100 to 1000	100 to 1000
Cc1c(F)cccc1[C@@H](c1ccc(F)cc1)[C@H]1[C@H]2CCCN2C(=O)c2c(O)c(=O)cnn21 [Example 18, (9aR,10S)-10-((R)-(3-fluoro-2-methylphenyl)(4-fluorophenyl)methyl)-4-hydroxy-8,9,9a,10-tetrahydro-7H-pyrrolo[1′,2′:4,5]pyrazino[1,2-b]pyridazine-3,5-dione]	< 100	< 100	< 100
CN1CCN(C(=O)OCOc2c3n(ncc2=O)[C@@H]([C@H](c2ccccc2)c2cccc(F)c2F)[C@H]2CCCN2C3=O)CC1 [Example 36, (((9aR,10S)-10-((R)-(2,3-difluorophenyl)(phenyl)methyl)-3,5-dioxo-3,5,8,9,9a,10-hexahydro-7H-pyrrolo[1′,2′:4,5]pyrazino[1,2-b]pyridazin-4-yl)oxy)methyl 4-methylpiperazine-1-carboxylate]	≥ 1000	≥ 1000	≥ 1000
O=C1c2c(O)c(=O)cnn2[C@@H]([C@@H](c2ccc(F)cc2)c2cccc(C(F)(F)F)c2)[C@H]2CCCN12 [Example 1, (9aR,10S)-10-((S)-(4-fluorophenyl)(3-(trifluoromethyl)phenyl)methyl)-4-hydroxy-8,9,9a,10-tetrahydro-7H-pyrrolo[1′,2′:4,5]pyrazino[1,2-b]pyridazine-3,5-dione]	< 100	< 100	< 100
CC(=O)Oc1c2n(ncc1=O)[C@@H]([C@H](c1cccc(F)c1)c1cccc(F)c1F)[C@H]1CCCN1C2=O [Example 105, (9aR,10S)-10-((R)-(2,3-difluorophenyl)(3-fluorophenyl)methyl)-3,5-dioxo-3,5,8,9,9a,10-hexahydro-7H-pyrrolo[1′,2′:4,5]pyrazino[1,2-b]pyridazin-4-yl acetate]	< 100	< 100	< 100
COCCOC(=O)Oc1c2n(ncc1=O)[C@@H]([C@H](c1ccccc1)c1cccc(F)c1F)[C@H]1CCCN1C2=O [Example 50, (9aR,10S)-10-((R)-(2,3-difluorophenyl)(phenyl)methyl)-3,5-dioxo-3,5,8,9,9a,10-hexahydro-7H-pyrrolo[1′,2′:4,5]pyrazino[1,2-b]pyridazin-4-yl (2-methoxyethyl) carbonate]	< 100	< 100	< 100
COC(=O)C(C)(C)OC(=O)OCOc1c2n(ncc1=O)[C@@H]([C@H](c1ccccc1)c1cccc(F)c1F)[C@H]1CCCN1C2=O [Example 42, methyl 2-((((((9aR,10S)-10-((R)-(2,3-difluorophenyl)(phenyl)methyl)-3,5-dioxo-3,5,8,9,9a,10-hexahydro-7H-pyrrolo[1′,2′:4,5]pyrazino[1,2-b]pyridazin-4-yl)oxy)methoxy)carbonyl)oxy)-2-methylpropanoate]	100 to 1000	100 to 1000	100 to 1000
O=C1c2c(O)c(=O)cnn2[C@@H]([C@H](c2ccc(F)cc2)c2cccc(C(F)(F)F)c2)[C@H]2CCCN12 [Example 20, (9aR,10S)-10-((R)-(4-fluorophenyl)(3-(trifluoromethyl)phenyl)methyl)-4-hydroxy-8,9,9a,10-tetrahydro-7H-pyrrolo[1′,2′:4,5]pyrazino[1,2-b]pyridazine-3,5-dione]	100 to 1000	100 to 1000	100 to 1000
CC(=O)OCOc1c2n(ncc1=O)[C@@H]([C@H](c1cccc(F)c1)c1cccc(F)c1F)[C@H]1CCCN1C2=O [Example 114, (((9aR,10S)-10-((R)-(2,3-difluorophenyl)(3-fluorophenyl)methyl)-3,5-dioxo-3,5,8,9,9a,10-hexahydro-7H-pyrrolo[1′,2′:4,5]pyrazino[1,2-b]pyridazin-4-yl)oxy)methyl acetate]	< 100	< 100	< 100
